US4695545A, “Culture and process for producing A41030 antibiotics” (Eli Lilly and Company, priority 1984, dated 1987)

What was measured:
[1] = tested on: Staphylococcus epidermidis; assay: MIC aerobic bacteria, standard agar-dilution assay; type: cell-based; conditions: Staphylococcus epidermidis EPI1, 24 hours
Streptococcus pyogenes = assay: MIC aerobic bacteria, standard agar-dilution assay; type: cell-based; conditions: Streptococcus pyogenes C203, 24 hours
Propionibacterium acnes [2] = assay: MIC anaerobic bacteria, agar-dilution; type: cell-based; conditions: Propionibacterium acnes 79; agar-dilution (Table 9)
Clostridium difficile [3] = assay: MIC against Clostridium difficile strains, agar-dilution; type: cell-based
Source text: The A41030 antibiotic factors A, B, C, D, E, F, and G, are also active against a number of strains of Clostridium difficile, as determined by the agardilution method.

[4] = tested on: Peptococcus asaccharolyticus; assay: MIC anaerobic bacteria, agar-dilution; type: cell-based; conditions: Peptococcus asaccharolyticus 1302
[5] = Electrometric titration (pKa); type: physicochemical; conditions: electrometric titration in 66% dimethylformamide in water
Source text: Antibiotic A41030 factor A is a white, crystalline solid.

Peptococcus prevoti = assay: MIC anaerobic bacteria, agar-dilution; type: cell-based; conditions: Peptococcus prevoti 1281
Haemophilus influenzae = assay: MIC aerobic bacteria, standard agar-dilution assay; type: cell-based
[6] = tested on: Streptococcus sp. Group D; assay: MIC aerobic bacteria, standard agar-dilution assay; type: cell-based
[7] = tested on: Bacteroides thetaiotaomicron; assay: MIC anaerobic bacteria, agar-dilution; type: cell-based; conditions: Bacteroides thetaiotaomicron 1438
Clostridium perfringens = type: cell-based; conditions: Clostridium perfringens 81; agar-dilution
Bacteroides corrodens = assay: MIC anaerobic bacteria, agar-dilution; type: cell-based; conditions: Bacteroides corrodens 1874
Propionibacterium acnes [8] = assay: MIC against Propionibacterium acnes strains, 24-hour agar-dilution; type: cell-based
Source text: Antibiotic A41030 factors A, B and C have been tested and found to be active against a genus of anaerobic bacteria identified as Propionibacterium acnes.

Bacteroides vulgatis = assay: MIC anaerobic bacteria, agar-dilution; type: cell-based; conditions: Bacteroides vulgatis 1211
Streptococcus pneumoniae = assay: MIC aerobic bacteria, standard agar-dilution assay; type: cell-based; conditions: Streptococcus pneumoniae Park I, 24 hours
Bacteroides fragilis = assay: MIC anaerobic bacteria, agar-dilution; type: cell-based
[9] = tested on: Peptostreptococcus anaerobius; assay: MIC anaerobic bacteria, agar-dilution; type: cell-based; conditions: Peptostreptococcus anaerobius 1428
[10] = tested on: Fusobacterium necrophorum; assay: MIC anaerobic bacteria, agar-dilution; type: cell-based; conditions: Fusobacterium necrophorum 6054A
Clostridium septicum = assay: MIC anaerobic bacteria, agar-dilution; type: cell-based; conditions: Clostridium septicum 1128
Fusobacterium symbiosum = assay: MIC anaerobic bacteria, agar-dilution; type: cell-based; conditions: Fusobacterium symbiosum 1470
[11] = tested on: Bacteroides melaninogenicus; assay: MIC anaerobic bacteria, agar-dilution; type: cell-based; conditions: Bacteroides melaninogenicus 2736
Solubility in solvents = type: physicochemical; conditions: qualitative
Source text: As many as seven antibiotic factors are recovered from the fermentation and are obtained as a mixture, the A41030 complex. It will be recognized that the ratio of the factors in the A41030 complex will vary, depending upon the fermentation conditions used. The individual factors A, B, C, D, E, F, and G are separated and isolated as individual compounds, as hereinafter described.

S. pyogenes = assay: In vivo oral activity against S. pyogenes in mice
Clostridium difficile [12] = assay: MIC anaerobic bacteria, agar-dilution; type: cell-based; conditions: Clostridium difficile 2994; agar-dilution (Table 9)

With A41030 factor C the MIC [1] was 0.5 µg/mL, the MIC (Streptococcus pyogenes) was 1 µg/mL and the MIC (Propionibacterium acnes [2]) was at most 0.25 µg/mL. The MIC (Clostridium difficile [3]; Clostridium difficile 78) was 1.0 µg/mL, the MIC (Clostridium difficile [3]; Clostridium difficile 107B) was 1.0 µg/mL and the MIC (Clostridium difficile [3]; Clostridium difficile 111F) was 2 µg/mL. For the same substance, the MIC (Clostridium difficile [3]; Clostridium difficile 1153) was 2 µg/mL, the MIC (Clostridium difficile [3]; Clostridium difficile 2634) was 2 µg/mL and the MIC (Clostridium difficile [3]; Clostridium difficile 3424-5B) was 1.0 µg/mL. It also gave an MIC (Clostridium difficile [3]; Clostridium difficile 3816) of 2 µg/mL, an MIC (Clostridium difficile [3]; Clostridium difficile 3950D) of 2 µg/mL and an MIC (Clostridium difficile [3]; Clostridium difficile 6890) of 2 µg/mL. It also gave an MIC (Clostridium difficile [3]; Clostridium difficile 8484) of 1.0 µg/mL, an MIC (Clostridium difficile [3]; Clostridium difficile A-194) of 2 µg/mL and an MIC (Clostridium difficile [3]; Clostridium difficile A-195) of 1.0 µg/mL. It also gave an MIC (Clostridium difficile [3]; Clostridium difficile A-196) of 2 µg/mL, an MIC (Clostridium difficile [3]; Clostridium difficile A-279) of 2 µg/mL and an MIC (Clostridium difficile [3]; Clostridium difficile A-280) of 1.0 µg/mL. For the same substance, the MIC (Clostridium difficile [3]; Clostridium difficile A-281) was 2 µg/mL, the MIC (Clostridium difficile [3]; Clostridium difficile WAL-2112) was 2 µg/mL and the MIC (Clostridium difficile [3]; Clostridium difficile WAL-3657) was 2 µg/mL. The MIC (Clostridium difficile [3]; Clostridium difficile WAL-4268) was 1.0 µg/mL, the MIC [4] was at most 0.25 µg/mL and the “pKa, second titratable group” value [5] was about 7.1. The “possibly additional pKa's” value ([5]; stated as possible) was over 10, the MIC (Peptococcus prevoti) was at most 0.25 µg/mL and the MIC (Haemophilus influenzae; Haemophilus influenzae 251, 24 hours) was 4 µg/mL. It also gave an MIC (Haemophilus influenzae; Haemophilus influenzae Brun, 24 hours) of 16 µg/mL, an MIC ([6]; Streptococcus sp. Group D 9960, 24 hours) of 4 µg/mL and an MIC ([6]; Streptococcus sp. Group D X66, 24 hours) of 2 µg/mL. The MIC [7] was 64 µg/mL, the MIC (Clostridium perfringens) was 1.0 µg/mL and the MIC (Bacteroides corrodens) was 32 µg/mL. It also gave an MIC (Propionibacterium acnes [8]; P. acnes strain 104) of 0.25 µg/mL, an MIC (Propionibacterium acnes [8]; P. acnes strain 5170) of at most 0.03 µg/mL and an MIC (Propionibacterium acnes [8]; P. acnes strain 5176) of at most 0.03 µg/mL. For the same substance, the MIC (Propionibacterium acnes [8]; P. acnes strain 5187) was 0.06 µg/mL, the MIC (Propionibacterium acnes [8]; P. acnes strain 5197) was at most 0.03 µg/mL and the MIC (Propionibacterium acnes [8]; P. acnes strain 5227) was 0.06 µg/mL. It also gave an MIC (Propionibacterium acnes [8]; P. acnes strain 5228) of 1.0 µg/mL, an MIC (Propionibacterium acnes [8]; P. acnes strain 5229) of 0.5 µg/mL and an MIC (Propionibacterium acnes [8]; P. acnes strain 5246) of 0.06 µg/mL. It also gave an MIC (Propionibacterium acnes [8]; P. acnes strain 5292) of 0.06 µg/mL, an MIC (Bacteroides vulgatis) of 32 µg/mL and an MIC (Streptococcus pneumoniae) of 1 µg/mL. The MIC (Bacteroides fragilis; Bacteroides fragilis 1877) was 16 µg/mL, the MIC (Bacteroides fragilis; Bacteroides fragilis 1936B) was 32 µg/mL and the MIC [9] was at most 0.25 µg/mL. The MIC [10] was 16 µg/mL, the MIC (Clostridium septicum) was 8 µg/mL and the MIC (Fusobacterium symbiosum) was 1.0 µg/mL. The MIC [11] was 4 µg/mL, the “solubility (solvents)” value (Solubility in solvents) was “soluble in the same solvents as factor A” and the “in vivo oral activity” value (S. pyogenes) was over 300 mg./kg.×2. The MIC (Clostridium difficile [12]) was 16 µg/mL.
